From patent US4450167A, “3-Quinoline carboxamides having anxiolytic activity” (Roussel Uclaf, priority 1981, dated 1984)

Molecular target: benzodiazepine receptors
Assay: Affinity for benzodiazepine receptors (3H Diazepam displacement, rat cortex membranes)
Assay type: binding
Settings: rat brain cortex membranes, 3H Diazepam 10^-9 moles, 0° C., 30 minutes; read-out: CI50, concentration inhibiting by 50% the specific bonding of 3H diazepam
Description: The test was inspired by Mohler et al [Science, No. 198 (1977), p. 849-851] in which the cortex was removed from the brains of male rats weighing an average of 150 g and homogenized at a ratio of 1 part by weight per 20 parts by volume of 0.32 M sucrose. The homogenized mixture was centrifuged at 1000 g for 10 minutes at 0° C. and the surnageant was centrifuged at 30,000 g for 20 minutes at 4° C. The culot was suspended in 20 volumes of Tris HCl 50 mM buffer with a pH of 7.4 and the suspension was centrifuged at 30,000 g for 20 minutes at 4° C. The resulting culot was suspended in 50 ml of Krebs Tris HCl buffered at a pH of 7.4 and 2 ml of the suspension was incubated at 0° C. for 30 minutes in the presence of ^3 H Diazepam at a concentration of 10^-9 moles with increasing concentration of the test product to determine the non-specificfixation with non-radioactive Diazepam at a concentration of 10^-6 moles.
The incubated suspensions were filtered through a Whatman GF/C filter and the filters were washed twice with 5 ml of Krebs Tris HCl buffer at a pH of 7.4 not 0° C. The radioactivity of the filters was measured by liquid scintillation and the affinity of the test product for benzodiazepine receptors was expressed in CI50 or the concentration inhibiting by 50% the specific bonding of ^3 H diapezam.

Row | SMILES | IC50 [nM]
1 | CCOc1ccc(NC(=O)c2cnc3ccccc3c2O)cc1 [Example 1, 4-hydroxy-N-(4-ethoxyphenyl)-3-quinoline-carboxamide] | 40
2 | COc1ccc(NC(=O)c2cnc3ccccc3c2O)cc1 [Example 6, 4-hydroxy-N-(4-methoxyphenyl)-3-quinoline-carboxamide] | 7.5
3 | O=C(Nc1ccc(O)cc1)c1cnc2ccccc2c1O [Example 7, 4-hydroxy-N-(4-hydroxyphenyl)-3-quinoline-carboxamide] | 4.4
4 | CCNC(=O)c1cnc2ccccc2c1O [Example 8, 4-hydroxy-N-ethyl-3-quinoline-carboxamide] | 11
5 | CCCCNC(=O)c1cnc2ccccc2c1O [Example 9, 4-hydroxy-N-butyl-3-quinoline-carboxamide] | 3.7
6 | CCCCCCNC(=O)c1cnc2ccccc2c1O [Example 10, 4-hydroxy-N-n-hexyl-3-quinoline-carboxamide] | 6.7
7 | COc1ccccc1NC(=O)c1cnc2ccccc2c1O [Example 13, 4-hydroxy-N-(2-methoxy-phenyl)-3-quinoline-carboxamide] | 54
8 | COc1cccc(NC(=O)c2cnc3ccccc3c2O)c1 [Example 16, 4-hydroxy-N-(3-methoxy-phenyl)-3-quinoline-carboxamide] | 6.6
9 | COc1ccc(NC(=O)c2c(C)nc3ccccc3c2O)cc1 [Example 23, 4-hydroxy-N-(4-methoxyphenyl)-2-methyl-3-quinoline-carboxamide] | 23
10 | CCCNC(=O)c1cnc2ccccc2c1O [Example 24, 4-hydroxy-N-propyl-3-quinoline-carboxamide] | 1.2
